Results taken from patent publication US20140289906A1, “Compositions Having Dicamba Decarboxylase Activity and Methods of Use” (priority 2013, published 2014).

Test system: Arabidopsis ecotype Columbia (Col-0)
Assay: Arabidopsis root growth inhibition assay
Details: 6 days
Description: Phytotoxicity of other major dicamba decarboxylaed products was evaluated using Arabidopsis root growth inhibition assay. 4-chloro-3-methoxy phenol was purchased from Biogene Organics, Inc. (catalog number U06-642-79). 2,5-dichloro phenol was purchased from Sigma-Aldrich (catalog number D70007). Briefly, seeds of Arabidopsis ecotype Columbia (Col-0) were surface sterilized with 70% (v/v) ethanol for 5 minutes and 10% (v/v) bleach for 15 minutes. After being washed three times with distilled water, the seeds were germinated on 1× Murashige and Skoog (MS) medium with a pH of 5.7, 3% (w/v) sucrose, and 0.8% (w/v) agar. After incubation for 3.5 days, the seedlings were transferred to 1×MS medium containing B5 vitamin, 3% (w/v) sucrose, 1.2% (w/v) agar, and filter sterilized compounds was added to the media at 60° C. The concentrations of compounds including dicamba were 0 μM, 1.0 μM, and 10 μM. The seedlings were placed vertically, and the temperature maintained at 23° C. to allow root growth along the surface of the agar, with a photoperiod of 16 h of light and 8 h of dark.

**Q.** What does the source list for Oc1cc(Cl)ccc1Cl [2,5-dichloro phenol]?
**A.** Arabidopsis root growth (1.0 uM in MS medium): did not have any effect; Arabidopsis root growth (10 uM in MS medium): did not have any effect
